Measurements taken from ChEMBL document CHEMBL5678818, “Discovery of potent SOS1 inhibitors that block RAS activation via disruption of the RAS-SOS1 interaction” (Proc Natl Acad Sci U S A, 2019).

Experiments:
[1] = organism: Homo sapiens; assay: Inhibition of N-terminal GST-tagged recombinant human SOS1 H905M mutant (564 to 1049 residues) expressed in Escherichia coli assessed as reduction in KRAS G12C mutant activation at 10 uM by HTRF analysis relative to control
[2] = test system: Tyrosine-protein kinase ABL1 (Homo sapiens), P00519 [H396P]; assay: Inhibition of nonphosphorylated ABL1 H396P mutant (unknown origin) assessed as residual activity at 100 nM by KINOMEscan analysis relative to control
[3] = test system: Epidermal growth factor receptor (Homo sapiens), P00533 [UNDEFINED MUTATION]; assay: Inhibition of EGFR L747-T751del/Sins mutant (unknown origin) assessed as residual activity at 100 nM by KINOMEscan analysis relative to control
Sequence of Epidermal growth factor receptor (Homo sapiens), P00533 [UNDEFINED MUTATION] (P00533 whole entry, looked up, stated change not applied): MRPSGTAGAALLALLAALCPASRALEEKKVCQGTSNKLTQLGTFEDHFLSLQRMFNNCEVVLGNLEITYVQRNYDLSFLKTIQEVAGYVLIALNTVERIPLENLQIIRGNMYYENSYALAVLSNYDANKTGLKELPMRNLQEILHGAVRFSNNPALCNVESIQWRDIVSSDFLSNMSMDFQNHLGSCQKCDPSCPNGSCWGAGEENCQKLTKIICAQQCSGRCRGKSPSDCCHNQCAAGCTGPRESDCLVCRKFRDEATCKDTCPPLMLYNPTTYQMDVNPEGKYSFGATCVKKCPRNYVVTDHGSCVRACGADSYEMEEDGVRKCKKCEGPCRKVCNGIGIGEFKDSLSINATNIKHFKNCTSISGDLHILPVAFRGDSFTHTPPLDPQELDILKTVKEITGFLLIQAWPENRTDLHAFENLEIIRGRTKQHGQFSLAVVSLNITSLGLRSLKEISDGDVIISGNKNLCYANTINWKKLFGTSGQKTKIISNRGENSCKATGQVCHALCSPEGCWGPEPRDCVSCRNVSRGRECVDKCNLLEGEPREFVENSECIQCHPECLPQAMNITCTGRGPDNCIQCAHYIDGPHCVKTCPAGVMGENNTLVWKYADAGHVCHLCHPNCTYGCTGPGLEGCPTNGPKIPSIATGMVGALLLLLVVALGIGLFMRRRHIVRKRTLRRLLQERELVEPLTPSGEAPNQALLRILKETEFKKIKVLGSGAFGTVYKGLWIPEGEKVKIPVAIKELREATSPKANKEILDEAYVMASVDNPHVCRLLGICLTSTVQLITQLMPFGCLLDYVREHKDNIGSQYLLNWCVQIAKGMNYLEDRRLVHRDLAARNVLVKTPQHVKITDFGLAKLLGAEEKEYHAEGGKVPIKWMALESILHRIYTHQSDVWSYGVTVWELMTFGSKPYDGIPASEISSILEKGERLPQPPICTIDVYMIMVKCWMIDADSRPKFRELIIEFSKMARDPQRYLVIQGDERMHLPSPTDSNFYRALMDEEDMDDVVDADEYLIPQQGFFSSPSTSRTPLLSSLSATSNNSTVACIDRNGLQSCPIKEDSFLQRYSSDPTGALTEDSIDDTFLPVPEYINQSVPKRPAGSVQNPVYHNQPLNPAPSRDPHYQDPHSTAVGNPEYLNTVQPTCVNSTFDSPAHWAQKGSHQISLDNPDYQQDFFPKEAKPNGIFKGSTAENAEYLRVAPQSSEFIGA

[4] = molecular target: T1, Dual specificity mitogen-activated protein kinase kinase 3 (Homo sapiens) (UniProt P46734); assay: Inhibition of MEK3 (unknown origin) assessed as residual activity at 100 nM by KINOMEscan analysis relative to control
T1 sequence (whole entry): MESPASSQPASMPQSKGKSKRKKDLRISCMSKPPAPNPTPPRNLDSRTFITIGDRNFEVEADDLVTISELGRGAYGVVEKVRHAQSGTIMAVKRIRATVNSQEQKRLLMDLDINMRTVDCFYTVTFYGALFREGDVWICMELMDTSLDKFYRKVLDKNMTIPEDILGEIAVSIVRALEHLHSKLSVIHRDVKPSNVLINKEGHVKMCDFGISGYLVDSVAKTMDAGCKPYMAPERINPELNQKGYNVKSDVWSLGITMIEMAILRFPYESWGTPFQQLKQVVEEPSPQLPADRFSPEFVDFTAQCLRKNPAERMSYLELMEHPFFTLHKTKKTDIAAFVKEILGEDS

[5] = molecular target: Serine/threonine-protein kinase 26 (Homo sapiens) (UniProt Q9P289); assay: Inhibition of MST4 (unknown origin) assessed as residual activity at 100 nM by KINOMEscan analysis relative to control
Sequence of Serine/threonine-protein kinase 26 (Homo sapiens) (Q9P289 2-416 limits assumed): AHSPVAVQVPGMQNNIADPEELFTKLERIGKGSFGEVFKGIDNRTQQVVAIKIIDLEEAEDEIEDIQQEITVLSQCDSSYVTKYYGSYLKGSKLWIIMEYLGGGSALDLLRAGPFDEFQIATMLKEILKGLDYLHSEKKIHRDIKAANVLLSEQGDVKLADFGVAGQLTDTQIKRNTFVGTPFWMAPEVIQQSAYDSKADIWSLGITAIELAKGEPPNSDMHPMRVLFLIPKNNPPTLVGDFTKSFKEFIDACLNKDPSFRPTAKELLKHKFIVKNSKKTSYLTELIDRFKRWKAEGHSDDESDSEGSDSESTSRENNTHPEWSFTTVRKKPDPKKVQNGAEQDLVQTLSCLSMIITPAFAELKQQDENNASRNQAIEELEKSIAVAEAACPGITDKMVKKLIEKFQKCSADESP

[6] = molecular target: T2, Serine/threonine-protein kinase Nek5 (Homo sapiens) (UniProt Q6P3R8); assay: Inhibition of NEK5 (unknown origin) assessed as residual activity at 100 nM by KINOMEscan analysis relative to control
T2 sequence (whole entry): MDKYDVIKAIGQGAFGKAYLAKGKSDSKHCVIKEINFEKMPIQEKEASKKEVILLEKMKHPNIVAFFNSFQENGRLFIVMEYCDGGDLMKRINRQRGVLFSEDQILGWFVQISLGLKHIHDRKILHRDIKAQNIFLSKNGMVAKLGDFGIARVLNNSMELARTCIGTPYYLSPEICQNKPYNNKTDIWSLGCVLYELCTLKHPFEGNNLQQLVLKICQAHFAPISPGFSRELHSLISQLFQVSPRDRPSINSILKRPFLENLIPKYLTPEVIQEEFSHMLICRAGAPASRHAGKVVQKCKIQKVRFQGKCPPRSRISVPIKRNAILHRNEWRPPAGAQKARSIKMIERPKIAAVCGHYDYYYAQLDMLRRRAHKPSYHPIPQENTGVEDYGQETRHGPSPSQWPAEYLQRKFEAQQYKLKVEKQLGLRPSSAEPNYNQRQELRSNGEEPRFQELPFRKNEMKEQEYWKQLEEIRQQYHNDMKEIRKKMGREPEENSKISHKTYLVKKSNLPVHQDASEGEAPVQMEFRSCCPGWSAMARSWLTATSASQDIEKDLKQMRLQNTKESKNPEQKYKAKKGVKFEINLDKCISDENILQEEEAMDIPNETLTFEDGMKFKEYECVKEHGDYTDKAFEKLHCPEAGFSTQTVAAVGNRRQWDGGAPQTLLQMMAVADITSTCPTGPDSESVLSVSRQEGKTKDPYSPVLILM

[7] = test system: Phosphatidylinositol 4,5-bisphosphate 3-kinase catalytic subunit alpha isoform (Homo sapiens), P42336 [C420R]; assay: Inhibition of PIK3CA C420R mutant (unknown origin) assessed as residual activity at 100 nM by KINOMEscan analysis relative to control
Sequence of Phosphatidylinositol 4,5-bisphosphate 3-kinase catalytic subunit alpha isoform (Homo sapiens), P42336 [C420R] (P42336 whole entry C420R, canonical isoform): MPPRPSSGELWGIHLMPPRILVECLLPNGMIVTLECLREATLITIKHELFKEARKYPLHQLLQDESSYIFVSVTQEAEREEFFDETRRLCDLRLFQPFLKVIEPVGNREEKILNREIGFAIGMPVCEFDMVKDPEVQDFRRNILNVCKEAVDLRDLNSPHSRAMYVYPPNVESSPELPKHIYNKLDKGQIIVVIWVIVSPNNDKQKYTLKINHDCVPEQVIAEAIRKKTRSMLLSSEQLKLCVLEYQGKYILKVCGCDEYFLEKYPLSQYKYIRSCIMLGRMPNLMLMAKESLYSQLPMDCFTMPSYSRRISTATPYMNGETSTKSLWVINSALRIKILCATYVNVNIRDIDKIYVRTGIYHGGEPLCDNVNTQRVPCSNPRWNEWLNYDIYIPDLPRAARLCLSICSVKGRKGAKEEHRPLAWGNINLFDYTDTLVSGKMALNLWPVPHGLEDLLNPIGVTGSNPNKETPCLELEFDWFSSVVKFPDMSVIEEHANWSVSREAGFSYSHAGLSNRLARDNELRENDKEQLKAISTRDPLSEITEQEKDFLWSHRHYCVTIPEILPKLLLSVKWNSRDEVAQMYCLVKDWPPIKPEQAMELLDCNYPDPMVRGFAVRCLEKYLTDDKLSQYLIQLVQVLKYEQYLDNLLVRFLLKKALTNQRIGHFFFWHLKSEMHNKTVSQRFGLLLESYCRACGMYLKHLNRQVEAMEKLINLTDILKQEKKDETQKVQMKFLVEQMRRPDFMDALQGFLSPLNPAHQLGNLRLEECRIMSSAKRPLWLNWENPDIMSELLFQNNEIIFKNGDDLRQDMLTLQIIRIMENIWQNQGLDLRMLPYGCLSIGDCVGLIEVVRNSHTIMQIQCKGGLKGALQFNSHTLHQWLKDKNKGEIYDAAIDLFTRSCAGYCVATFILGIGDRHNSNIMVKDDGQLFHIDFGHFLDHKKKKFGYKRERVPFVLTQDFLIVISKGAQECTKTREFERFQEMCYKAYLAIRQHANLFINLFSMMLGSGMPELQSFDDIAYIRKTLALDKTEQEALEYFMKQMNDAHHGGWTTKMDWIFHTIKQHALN

[8] = molecular target: cAMP-dependent protein kinase catalytic subunit beta (Homo sapiens) (UniProt P22694); assay: Inhibition of PKAC-beta (unknown origin) assessed as residual activity at 100 nM by KINOMEscan analysis relative to control
[9] = molecular target: T3, Serine/threonine-protein kinase Sgk2 (Homo sapiens) (UniProt Q9HBY8); assay: Inhibition of SGK2 (unknown origin) assessed as residual activity at 100 nM by KINOMEscan analysis relative to control
T3 sequence (whole entry): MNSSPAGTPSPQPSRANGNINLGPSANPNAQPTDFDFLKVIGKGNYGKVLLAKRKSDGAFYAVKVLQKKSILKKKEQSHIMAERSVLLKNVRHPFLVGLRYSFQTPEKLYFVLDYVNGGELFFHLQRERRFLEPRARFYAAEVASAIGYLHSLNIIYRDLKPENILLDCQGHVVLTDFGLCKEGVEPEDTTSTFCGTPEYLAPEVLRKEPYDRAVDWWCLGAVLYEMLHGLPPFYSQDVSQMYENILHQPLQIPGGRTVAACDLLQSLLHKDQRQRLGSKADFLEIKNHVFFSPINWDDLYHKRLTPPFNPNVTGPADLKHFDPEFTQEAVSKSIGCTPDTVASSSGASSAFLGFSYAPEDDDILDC

[10] = molecular target: Proto-oncogene tyrosine-protein kinase Src (Homo sapiens) (UniProt P12931); assay: Inhibition of SRC (unknown origin) assessed as residual activity at 100 nM by KINOMEscan analysis relative to control
Sequence of Proto-oncogene tyrosine-protein kinase Src (Homo sapiens) (P12931 2-536 limits assumed): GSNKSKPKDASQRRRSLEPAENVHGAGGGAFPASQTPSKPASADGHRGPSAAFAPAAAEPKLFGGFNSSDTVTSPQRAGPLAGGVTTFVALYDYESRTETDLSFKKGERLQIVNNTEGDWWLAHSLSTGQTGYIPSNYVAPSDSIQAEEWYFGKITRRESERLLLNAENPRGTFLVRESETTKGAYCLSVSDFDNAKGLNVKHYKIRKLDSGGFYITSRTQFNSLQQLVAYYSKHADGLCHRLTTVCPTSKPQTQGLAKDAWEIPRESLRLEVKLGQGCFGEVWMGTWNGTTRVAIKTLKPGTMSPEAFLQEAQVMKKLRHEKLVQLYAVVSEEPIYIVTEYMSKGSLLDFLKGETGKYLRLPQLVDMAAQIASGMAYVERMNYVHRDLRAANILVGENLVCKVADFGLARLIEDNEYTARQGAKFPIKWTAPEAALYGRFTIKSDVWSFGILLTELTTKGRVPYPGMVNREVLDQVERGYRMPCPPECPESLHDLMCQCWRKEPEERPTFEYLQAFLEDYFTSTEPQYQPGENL

[11] = molecular target: Wee1-like protein kinase (Homo sapiens) (UniProt P30291); assay: Inhibition of WEE1 (unknown origin) assessed as residual activity at 100 nM by KINOMEscan analysis relative to control
Sequence of Wee1-like protein kinase (Homo sapiens) (P30291 whole entry, looked up): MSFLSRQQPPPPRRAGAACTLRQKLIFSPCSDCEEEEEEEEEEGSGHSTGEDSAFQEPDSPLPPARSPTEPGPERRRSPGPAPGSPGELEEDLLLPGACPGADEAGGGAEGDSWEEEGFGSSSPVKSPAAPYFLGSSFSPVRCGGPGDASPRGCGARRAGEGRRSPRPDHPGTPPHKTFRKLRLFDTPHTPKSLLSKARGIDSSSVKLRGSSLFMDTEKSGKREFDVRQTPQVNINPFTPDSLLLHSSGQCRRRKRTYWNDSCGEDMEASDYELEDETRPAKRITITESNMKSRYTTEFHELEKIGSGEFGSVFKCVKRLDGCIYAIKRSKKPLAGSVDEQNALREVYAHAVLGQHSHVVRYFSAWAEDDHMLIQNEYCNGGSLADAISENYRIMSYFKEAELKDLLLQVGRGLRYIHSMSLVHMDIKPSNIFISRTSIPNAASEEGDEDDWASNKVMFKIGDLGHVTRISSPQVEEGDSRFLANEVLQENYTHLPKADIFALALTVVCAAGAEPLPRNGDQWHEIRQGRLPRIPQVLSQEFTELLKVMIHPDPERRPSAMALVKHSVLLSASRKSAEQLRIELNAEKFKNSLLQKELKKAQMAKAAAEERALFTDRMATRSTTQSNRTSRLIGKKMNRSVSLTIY

`COc1cc2ncnc(N[C@H](C)c3cccc4ccccc34)c2cc1OC` showed an inhibition [1] of 39%, an Activity [2] of 100% and an Activity [3] of 80%. It also gave an Activity [4] of 90%, an Activity [5] of 88% and an Activity [6] of 31%. It also gave an Activity [7] of 90%, an Activity [8] of 88% and an Activity [9] of 97%. The Activity [10] was 90% and the Activity [11] was 88%.
